# Reference: the CombiSolv-Exp solvation set (Vermeire and Green 2021)
# Assay: solvent given as SMILES
structure (smiles),measurement,setting,value
COc1nc(NC(C)C)nc(NC(C)C)n1,"solvation free energy, 298 K",in O,-9.69 kcal/mol
CCCCCOC(C)=O,"solvation free energy, 298 K",in CCCCCC,-5.57 kcal/mol
same,"solvation free energy, 298 K",in CCCCCCC,-5.48 kcal/mol
same,"solvation free energy, 298 K",in CCCCCCCC,-5.42 kcal/mol
same,"solvation free energy, 298 K",in CCCCCCCCCC,-5.37 kcal/mol
same,"solvation free energy, 298 K",in CCCCCCCCCCCCCCCC,-5.24 kcal/mol
same,"solvation free energy, 298 K",in CCCCCCCCO,-5.61 kcal/mol
same,"solvation free energy, 298 K",in NC=O,-4.32 kcal/mol
same,"solvation free energy, 298 K",in O,-2.48 kcal/mol
same,"solvation free energy, 298 K",in [2H]O[2H],-2.55 kcal/mol
O=C(O)c1cccc(O)c1,"solvation free energy, 298 K",in O,-9.55 kcal/mol
Cc1c[nH]cn1,"solvation free energy, 298 K",in O,-10.3 kcal/mol
COCCCNc1nc(NC(C)C)nc(SC)n1,"solvation free energy, 298 K",in O,-11.9 kcal/mol
CCCNCc1ccc(C)cc1,"solvation free energy, 298 K",in O,-5.73 kcal/mol
COc1ccc(C(=O)O)cc1,"solvation free energy, 298 K",in C1CCOC1,-12.7 kcal/mol
same,"solvation free energy, 298 K",in C1COCCO1,-12.4 kcal/mol
same,"solvation free energy, 298 K",in CC(C)CCO,-11.5 kcal/mol
same,"solvation free energy, 298 K",in CC(C)CO,-11.5 kcal/mol
same,"solvation free energy, 298 K",in CC(C)O,-11.8 kcal/mol
same,"solvation free energy, 298 K",in CC(C)OC(C)C,-10.8 kcal/mol
same,"solvation free energy, 298 K",in CC(C)OCCO,-12.3 kcal/mol
same,"solvation free energy, 298 K",in CC(O)COC(C)(C)C,-11.9 kcal/mol
same,"solvation free energy, 298 K",in CCC(C)O,-11.7 kcal/mol
same,"solvation free energy, 298 K",in CCCC(C)O,-11.6 kcal/mol
same,"solvation free energy, 298 K",in CCCCCCCCCCO,-11.4 kcal/mol
same,"solvation free energy, 298 K",in CCCCCCCCO,-11.5 kcal/mol
same,"solvation free energy, 298 K",in CCCCCCCO,-11.5 kcal/mol
same,"solvation free energy, 298 K",in CCCCCCO,-11.6 kcal/mol
same,"solvation free energy, 298 K",in CCCCCO,-11.6 kcal/mol
same,"solvation free energy, 298 K",in CCCCO,-11.7 kcal/mol
same,"solvation free energy, 298 K",in CCCCOC(C)=O,-11.5 kcal/mol
same,"solvation free energy, 298 K",in CCCCOCCO,-12.2 kcal/mol
same,"solvation free energy, 298 K",in CCCO,-11.8 kcal/mol
same,"solvation free energy, 298 K",in CCCOCCO,-12.2 kcal/mol
same,"solvation free energy, 298 K",in CCO,-12 kcal/mol
same,"solvation free energy, 298 K",in CCOC(C)=O,-11.8 kcal/mol
same,"solvation free energy, 298 K",in CCOCC,-11.5 kcal/mol
same,"solvation free energy, 298 K",in CCOCCO,-12.4 kcal/mol
same,"solvation free energy, 298 K",in COC(C)CCO,-12.3 kcal/mol
same,"solvation free energy, 298 K",in O,-9.14 kcal/mol
CCCCC(C)(C)C,"solvation free energy, 298 K",in O,3.02 kcal/mol
CCC(N)=O,"solvation free energy, 298 K",in O,-9.4 kcal/mol
FC(F)C(F)(F)F,"solvation free energy, 298 K",in CCCCCCCC(=O)OCC(COC(=O)CCCCCCC)OC(=O)CCCCCCC,-0.79 kcal/mol
same,"solvation free energy, 298 K",in CCCCCCCCC,-0.39 kcal/mol
same,"solvation free energy, 298 K",in CCCCCCCCO,-0.57 kcal/mol
same,"solvation free energy, 298 K",in CN(C)C=O,-1.54 kcal/mol
same,"solvation free energy, 298 K",in O,1.45 kcal/mol
Clc1ccc(-c2ccc(Cl)c(Cl)c2)c(Cl)c1,"solvation free energy, 298 K",in O,-3.15 kcal/mol
CC1=CCC2C(C)=CCC(C(C)C)C2C1 (stereo not drawn),"solvation free energy, 298 K",in O,-0.38 kcal/mol
CC1CCCC(C)(C)C1 (stereo not drawn),"solvation free energy, 298 K",in O,2.23 kcal/mol
c1ccc2c(c1)OCCOCCOc1ccccc1OCCOCCO2,"solvation free energy, 298 K",in Cc1cccc(C)c1,-21.7 kcal/mol
same,"solvation free energy, 298 K",in O,-18.2 kcal/mol
CCc1cccc(CC)c1N(COC)C(=O)CCl,"solvation free energy, 298 K",in O,-8.21 kcal/mol
Clc1ccccn1,"solvation free energy, 298 K",in O,-4.39 kcal/mol
CCC(C)CCO (stereo not drawn),"solvation free energy, 298 K",in CCCCCCCC,-4.82 kcal/mol
same,"solvation free energy, 298 K",in CCCCCCCCCC,-4.79 kcal/mol
CCCCSP(=O)(O)SCCCC,"solvation free energy, 298 K",in O,-8.03 kcal/mol
O=S(=O)(c1ccccc1)c1ccccc1,"solvation free energy, 298 K",in C1CCOC1,-14.9 kcal/mol
same,"solvation free energy, 298 K",in C1COCCO1,-15 kcal/mol
same,"solvation free energy, 298 K",in CC(C)(C)O,-13.2 kcal/mol
same,"solvation free energy, 298 K",in CC(C)CC(C)(C)C,-11.6 kcal/mol
same,"solvation free energy, 298 K",in CC(C)CCO,-13.1 kcal/mol
same,"solvation free energy, 298 K",in CC(C)CO,-13.2 kcal/mol
same,"solvation free energy, 298 K",in CC(C)O,-13.2 kcal/mol
same,"solvation free energy, 298 K",in CC(C)OC(C)C,-13.1 kcal/mol
same,"solvation free energy, 298 K",in CCC(C)CO,-13.2 kcal/mol
same,"solvation free energy, 298 K",in CCC(C)O,-13.4 kcal/mol
same,"solvation free energy, 298 K",in CCCC(C)O,-13.1 kcal/mol
same,"solvation free energy, 298 K",in CCCCCC,-11.8 kcal/mol
same,"solvation free energy, 298 K",in CCCCCCC,-11.8 kcal/mol
same,"solvation free energy, 298 K",in CCCCCCCC,-11.8 kcal/mol
same,"solvation free energy, 298 K",in CCCCCCCCCC,-11.8 kcal/mol
same,"solvation free energy, 298 K",in CCCCCCCCCCO,-12.8 kcal/mol
same,"solvation free energy, 298 K",in CCCCCCCO,-13.1 kcal/mol
same,"solvation free energy, 298 K",in CCCCCCO,-13.2 kcal/mol
same,"solvation free energy, 298 K",in CCCCCO,-13.3 kcal/mol
same,"solvation free energy, 298 K",in CCCCCl,-14.1 kcal/mol
same,"solvation free energy, 298 K",in CCCCO,-13.4 kcal/mol
same,"solvation free energy, 298 K",in CCCCOC(C)=O,-14.2 kcal/mol
same,"solvation free energy, 298 K",in CCCCOCCCC,-12.8 kcal/mol
same,"solvation free energy, 298 K",in CCCO,-13.5 kcal/mol
same,"solvation free energy, 298 K",in CCO,-13.6 kcal/mol
same,"solvation free energy, 298 K",in CCOC(C)=O,-14.6 kcal/mol
same,"solvation free energy, 298 K",in CCOCC,-13.7 kcal/mol
same,"solvation free energy, 298 K",in CO,-13.8 kcal/mol
same,"solvation free energy, 298 K",in COC(C)(C)C,-13.5 kcal/mol
same,"solvation free energy, 298 K",in COC(C)=O,-14.7 kcal/mol
same,"solvation free energy, 298 K",in O,-10.1 kcal/mol
